In patent US6989435B2, “Compounds and methods to inhibit or augment an inflammatory response” (Cambridge University Technical Services Ltd., priority 1997, dated 2006):

Assays:
[1] = test system: chemokine-induced THP-1 migration (MCP-1, MIP1α, IL8, SDF1α); test: Trans-well THP-1 migration assay, across the chemokines tested; format: cell-based, human
Experimental: To determine whether an agent inhibits a chemokine-induced activity, such as macrophage recruitment, varying amounts of the agent are mixed with cells in the presence of a known chemoattractant. […] Chemokine (such as MCP-1, MIP1α, IL8 or SDF-1α), at a concentration known to cause significant migration of THP-1 cells in the trans-well migration assay, is placed in the lower compartment (FIG. 1). […] After incubation, the cells are gently removed from the top of the filter with a pipette, 20 μl of 20 mM EDTA in simple PBS is added into each top well, and incubated for 20 minutes at 4° C. The filter is carefully flushed with media using a gentle flow, and removed. […] The media is carefully aspirated from each well, and the converted dye is solubilized by 20 μl of DMSO. Absorbance of converted dye is measured at a wavelength of 595 nm using an ELISA plate reader. The number of migrated cells in each well is then determined by interpolation of the standard curve (see also Imai et al., J. Biol. Chem., 272, 15036 (1997)). […] The framed filter was aligned with the holes in the corner of the filter frame and placed over the wells. Five×10^4 THP-1 cells in 25 μl of RPMI-1640 culture media were added to the upper compartment. Peptides were dissolved in Milli Q water and then serially diluted in culture medium. In most cases, the serially diluted peptides were added to the upper compartment of the chemotaxis chamber. […] After incubation, the cells were gently removed from the top of the filter with a pipette, 20 μl of 20 mM EDTA in PBS was added into each top well, and the mixture was incubated for 20 minutes at 4° C. The filter was then carefully flushed with media using a gentle flow, and removed. […] The media was carefully aspirated from each well, and the converted dye was solubilized by 20 μl of DMSO. Absorbance of converted dye was measured at a wavelength of 595 nm using an ELISA plate reader. […] Representative chemokines included a beta-chemokine (“CC”), MIP-1α, and two alpha-chemokines (“CXC”), IL-8 and SDF-1α. […]

[2] = target: T1, Duffy Antigen Receptor for Chemokines (DARC) (Homo sapiens, UniProt Q16570); test: DARC binding: competition with 125I-labeled MCP-1 on red blood cells
T1 sequence (Q16570 1-336): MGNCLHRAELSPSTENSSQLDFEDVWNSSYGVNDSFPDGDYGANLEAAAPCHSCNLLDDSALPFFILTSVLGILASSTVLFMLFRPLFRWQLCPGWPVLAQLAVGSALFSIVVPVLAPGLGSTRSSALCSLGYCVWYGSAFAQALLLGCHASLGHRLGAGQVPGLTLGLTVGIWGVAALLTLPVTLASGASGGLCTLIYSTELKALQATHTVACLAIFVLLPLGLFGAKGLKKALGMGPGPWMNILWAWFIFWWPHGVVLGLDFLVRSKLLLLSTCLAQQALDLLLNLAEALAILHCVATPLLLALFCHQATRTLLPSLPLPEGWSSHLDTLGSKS

T-tropic HIV isolate = test: HIV infection of Jurkat cells, reverse transcriptase assay of culture medium; format: cell-based; conditions: 100 μM peptide; 3 weeks in culture
Experimental: Peptides were added on day 0, one hour prior to infection of the cells with HIV isolate. The full length chemokine SDF-1α was used as a positive control.
(SEQ ID NO:1), or (iv) 100 ng/ml SDF-1, which should bind to and block all CXCR-4 receptors. After 3 weeks in culture, viral replication was assessed by a reverse transcriptase assay of the culture medium. Peptide 3(1-12)[MCP-1]
Since peptide 2(1-15)[MCP1] […] (SEQ ID NO:3) binds and inhibits an epitope used by HIV for cell entry but not by MCP-1 for signaling. To test this hypothesis, the same HIV infection assay described above was employed to test whether peptide 2(1-15)[MCP-1] (SEQ ID NO:3) inhibits HIV infection of Jurkat cells. At 100 μM, peptide 2(1-15)[MCP-1]

[3] = test system: TGFβ1 induced human monocyte migration; test: Human monocyte migration, TGFβ1 induced; format: cell-based
Experimental: Agents may also be screened in a chemotactic assay which employs human neutrophils, eosinophils, mast cells, basophils, platelets, lymphocytes or monocytes. For monocytes, 9 mls of fresh blood are transferred to a tube containing 1 ml of 3.8% sodium citrate, and left at room temperature for 15 minutes. Five mls of this anti-coagulated blood are carefully layered over 3.5 ml Polymorphprep® (Nycomed Pharma, Oslo), and centrifuged at 500 g for 35 minutes per the manufacturer's instructions. The top band at the sample/medium interface contains monocytes. The monocytes are carefully removed with a glass pipette, and reconstituted to the original volume (5 ml). The cells are washed with PBS plus 10% fetal calf serum, and centrifuged at 400 g for 10 minutes. The washing step is repeated three times before the cells are counted. Cells are resuspended at 1×10^7 cells/ml in RPMI-1640+10% fetal calf serum (FCS). The monocytes are cultured for two days at 37° C. in a humidified atmosphere of 5% CO2.
On day 2, the cells are counted, spun down, and reconstituted to 1×10^7 cells/ml in Gey's balanced salt solution+1 mg/ml bovine serum albumin (BSA). […]

## EICADPKQKWVQ [Peptide 3]
[1]; 100 μM, THP-1
  inhibition of migration induced by any of the chemokines of either family: > 99%
[1]; Table 7, average inhibitory ED50 versus SDF1 and IL8 divided by average inhibitory ED50 versus MCP-1 and MIP1α
  CC SPECIFICITY: 1.5
[2]
  DARC binding, in words: low μM concentration range
[2]; Table 7, estimated ka for binding to red blood cells divided by average inhibitory ED50 versus each of the chemokines
  DUFFY SELECTIVITY: 1.00
T-tropic HIV isolate
  inhibition of Jurkat cell infection by HIV: effective inhibitor
[3]; 100 μM
  effect on TGF-beta induced monocyte migration: did not affect
[3]; Table 4(c), 100 μM peptide, n.s. = no statistically significant inhibition
  Extent of inhibition of human monocyte migration at 100 μM, TGFβ1: n.s.
